Data from article PMC10449632, “Structural basis for translation inhibition by the glycosylated drosocin peptide” (Nature Chemical Biology, 2023).
No end group written: not given here. *: point of attachment. αGalNAc = CC(=O)N[C@@H]1[C@@H](O)[C@@H](O)[C@@H](CO)O[C@@H]1*

What was measured:
[1] = test system: ribosomes at the stop codon of MLIF-UAA mRNA in the presence of RF1; assay: Toeprinting assay on MLIF*-mRNA with RF1; type: biochemical, Escherichia coli; details: for Relative stop band intensity signal: 30 μM compound, MLIF*-mRNA, plotted values; for stalling of ribosomes at the stop codon: toeprinting, 30 μM peptide, 1× or 10× RF1 (trend also with ten-fold RF2)
Protocol: To ascertain which step during protein synthesis is affected by drosocin, we performed toeprinting assays, where reverse transcription is used to monitor the position of ribosomes on a defined mRNA[34].
Toeprinting reactions were performed as described previously. In brief, reactions were performed with 6 μl of PURExpress ΔRF123 in vitro protein synthesis system (NEB) in the presence of 1× RF3 and either 1× or 10× of RF1 or RF2 (relative to the manufacturer’s recommendation). The reactions were carried out on an MLIF-UAA-toeprint template (5′-[…]-3′, ORF start codon and stop codon are underlined bold), containing T7 promoter, a ribosome binding site, an MLIF-coding ORF and the NV1* primer binding site. The template is a version of the ErmBL template with a truncated ORF and addition of a isoleucine coding codon at the third position in the ORF. The template was generated by polymerase chain reaction of two overlapping 77-nt- and 78-nt-long primers. The reactions contained 30 ng of the MLIF-UAA-toeprint DNA template. The reactions were supplemented with Api137, thiostrepton or one of the drosocin derivates as specified. The transcription–translation reactions were incubated for 15 minutes at 37 °C. The reverse transcription on the MLIF-short-UAA toeprint template was carried out using AMV RT and primer NV*1-Alexa 647 (5′-[…]-3′). The transcription–translation reactions were incubated with AMV RT and NV*1-Alexa 647 for 20 minutes at 37 °C. mRNA degradation was carried out by the addition of 1 µl of 5 M NaOH. The reactions were neutralized with 0.7 µl of 25% HCl, and nucleotide removal was performed with the QIAquick Nucleotide Removal Kit (Qiagen). The samples were dried under vacuum for 2 hours at 60 °C for subsequent gel electrophoresis. The 6% acrylamide gels were scanned on a Typhoon scanner (GE Healthcare).

E. coli SQ171 wt = assay: Antibiotic susceptibility (growth) assay, E. coli SQ171 wt; type: cell-based, Escherichia coli; details: relative to no compound, mean of 3 replicas
Source text: (§1) Strains E. coli Keio wild-type and E. coli Keio ΔsbmA used from the Keio knockout collection (Horizon, https://horizondiscovery.com). Wild-type E. coli SQ110 (ΔrrnGADBHC(ptRNA67))[47] and SQ171 (ΔrrnGADEHBC(pKK3535, ptRNA67))[47] strains and related mutants E. coli SQ110 A2059G and E. coli SQ171 A2503G were obtained from the previous Api137 study. E. coli strains SQ171 bearing A752G, U2609C and A752G:U2609C mutations[43] and E. coli SQ171 U2609G[48] were generated previously.
(§2) The susceptibility of E. coli strains to compounds was evaluated by monitoring the bacterial growth in presence of increasing concentrations of the compound of interest. In brief, bacteria were inoculated in a total volume of 100 μl of medium contained in a well of a 96-well microplate (round bottom, with cap, sterile; Sarstedt). The medium used was either LB, as rich medium, or ATCC medium (778 Davis and Mingioli glucose minimal medium), as minimal medium. Before inoculation, bacteria were grown up to exponential phase and then inoculated into the culture mix, containing selective antibiotic if necessary, with an initial optical density at 600 nm (OD600) of 0.05. Values measured from wells containing just the medium were used as a blank. The growth in each well was monitored by measuring the OD600 every 10 minutes for a total of 20 hours at 37 °C with shaking using a plate reader (Tecan Infinite 200 PRO). The inhibition resulting from a compound’s concentration was evaluated by normalizing the OD600 at t = 12 hours (corresponding to the end of the log phase) from the treated culture to the untreated one. For each compound, the concentrations tested were 5 μM, 10 μM and 30 μM. Each single titration assay was done in triplicate with individually prepared culture mixes. For each concentration, the standard deviation was calculated, taking into account each single replica and its specific technical error from the plate reader.

[2] = test system: E. coli Keio wt (BW25113); assay: Antibiotic susceptibility (growth) assay, E. coli Keio wild-type; type: cell-based, Escherichia coli; details: 30 μM peptide; for Average of normalized growth: average of three biological replicates; for growth inhibition in rich medium: rich (LB) medium
Source text: Many PrAMPs use the SbmA transporter to pass through the E. coli inner membrane[4],[10],[31]; however, whether drosocin also uses SbmA remains, to our knowledge, unknown. To address this, we monitored the effect of the presence of diverse drosocin peptides (Fig. 1a,b and Supplementary Fig. 1a) on the growth of the wild-type E. coli strain BW25113 containing SbmA or lacking SbmA (ΔsbmA) (Fig. 1c,d). We compared unmodified drosocin (Dro) with various modified forms (Fig. 1a,b). The modified forms included the naturally occurring Dro1 and Dro2 that carry either a monosaccharide (α-D-GalNAc) or disaccharide (β-D-Gal(1→3)-α-D-GalNAc) attached to Thr11, respectively (Fig. 1b). In addition, we examined the previously reported[23],[24] drosocin derivatives bearing β-D-Maltosyl (Dro3), α-D-GlcNAc (Dro4), β-D-Gal (Dro5), β-D-Glc (Dro6), β-D-Lactosyl (Dro7) and β-D-Cellobiosyl (Dro8) modifications on Thr11 (Fig. 1a,b and Supplementary Fig. 1a). Finally, we also included in our analysis the synthetic unmodified drosocin derivative with proline substitutions at positions 7, 11 and 12 (Dro-3P) (Fig. 1a), which was previously reported to have similar antimicrobial activity to the monosaccharide form of drosocin[25]. Growth was monitored in both rich (LB) and minimal medium in the presence of 30 μM of each peptide and normalized with the growth in the absence of the compounds (Methods). […] We also observed no inhibition for Dro2 nor for any of the β-linked disaccharides (Dro3, Dro6 or Dro7). […] By contrast, all drosocin peptides inhibited growth of the E. coli BW25113 strain in minimal medium, albeit to different extents (Fig. 1d).
as §1, §2

Row | Substance | Relative stop band intensity signal ([1]; Fig 1f, RF1 (1X)) | Relative stop band intensity signal ([1]; Fig 1g, RF1 (10X)) | stalling of ribosomes at the stop codon [1] | OD600 at t = 12 h, Normalized, Average (E. coli SQ171 wt; 5 μM) | OD600 at t = 12 h, Normalized, Average (E. coli SQ171 wt; 30 μM) | Average of normalized growth ([2]; LB rich medium) | Average of normalized growth ([2]; Minimal medium) | growth inhibition in minimal medium [2] | growth inhibition in rich medium [2]
1 | Dro1: naturally occurring drosocin carrying monosaccharide α-D-GalNAc attached to Thr11 (GKPRPYSPRPT(αGalNAc)SHPRPIRV; UniProt P36193 22-40, looked up) | 0.3782 | 0.6764 | strongest stalling | 93% | 11% | 38% | 6% | highest inhibition | growth inhibition
2 | Dro: unmodified drosocin, 19 amino acid proline-rich antimicrobial peptide lacking O-glycosylation (GKPRPYSPRPTSHPRPIRV; Drosocin; UniProt P36193 22-40, looked up) | 0.2211 | 0.4823 | good activity | 86% | 72% | 98% | 87% | lowest | inactive
